The record followed here is ChEMBL document CHEMBL1137864, “End-capping of the modified melanocortin tetrapeptide (p-Cl)Phe-D-Phe-Arg-Trp-NH2 as a route to hMC4R agonists” (Bioorg Med Chem Lett, 2004).

One may read the EC50 as the concentration needed to bring the measured effect to its halfway point. High values mean a less potent agent, low ones a more potent agent.

Assay [1] concerns the target Melanocortin receptor (M3 and M4) (Homo sapiens) (UniProt P32245+P41968). The assay can be described thus: Ratio of EC50 of Melanocortin 4 receptor to that of Melanocortin 3 receptor. In kind it is protein assay.
For assay [2], the target named is Melanocyte-stimulating hormone receptor (Homo sapiens, UniProt Q01726). The experiment in a line: Agonistic activity against human Melanocortin 1 receptor. In kind it is functional.
Melanocyte-stimulating hormone receptor, sequence (Q01726 whole entry): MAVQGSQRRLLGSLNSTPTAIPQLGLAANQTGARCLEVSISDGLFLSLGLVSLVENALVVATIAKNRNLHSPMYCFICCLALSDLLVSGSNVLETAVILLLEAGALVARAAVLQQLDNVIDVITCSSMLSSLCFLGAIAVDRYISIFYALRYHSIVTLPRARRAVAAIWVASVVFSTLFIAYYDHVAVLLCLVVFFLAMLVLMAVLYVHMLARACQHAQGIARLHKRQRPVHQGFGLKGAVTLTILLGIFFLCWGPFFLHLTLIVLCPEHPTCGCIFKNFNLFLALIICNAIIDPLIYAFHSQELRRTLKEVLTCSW
In assay [3] the target is Melanocortin receptor 3 (Homo sapiens, UniProt P41968). The assay can be described thus: Agonistic activity against human Melanocortin 3 receptor. In kind it is functional.
Melanocortin receptor 3, sequence (P41968 whole entry): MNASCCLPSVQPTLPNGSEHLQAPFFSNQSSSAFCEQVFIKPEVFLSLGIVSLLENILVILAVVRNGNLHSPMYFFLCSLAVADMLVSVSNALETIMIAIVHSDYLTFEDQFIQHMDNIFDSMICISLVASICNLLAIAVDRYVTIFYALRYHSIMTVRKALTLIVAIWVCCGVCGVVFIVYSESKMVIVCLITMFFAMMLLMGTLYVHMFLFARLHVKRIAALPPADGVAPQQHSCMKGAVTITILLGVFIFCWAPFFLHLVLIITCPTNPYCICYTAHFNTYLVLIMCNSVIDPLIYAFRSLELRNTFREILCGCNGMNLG
The target of assay [4] is Melanocortin receptor 4 (Homo sapiens, UniProt P32245). The assay can be described thus: Agonistic activity against human Melanocortin 4 receptor. Format: functional.
Melanocortin receptor 4, sequence (P32245 whole entry): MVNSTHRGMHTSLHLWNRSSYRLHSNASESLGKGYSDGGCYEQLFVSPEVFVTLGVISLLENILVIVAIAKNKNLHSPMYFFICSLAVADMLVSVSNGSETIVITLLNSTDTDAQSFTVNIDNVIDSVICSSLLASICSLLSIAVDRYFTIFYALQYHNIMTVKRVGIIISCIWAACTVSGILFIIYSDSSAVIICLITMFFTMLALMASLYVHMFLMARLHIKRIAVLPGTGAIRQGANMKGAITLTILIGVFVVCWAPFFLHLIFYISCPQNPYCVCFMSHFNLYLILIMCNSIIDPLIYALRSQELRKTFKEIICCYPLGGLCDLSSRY
In assay [5] the target is Melanocortin receptor (M1 and M4) (Homo sapiens) (UniProt P32245+Q01726). The experiment in a line: Ratio of EC50 of Melanocortin 4 receptor to that of Melanocortin 1 receptor. Format: protein assay.

Regarding `CCC(=O)N[C@@H](Cc1ccc(Cl)cc1)C(=O)NC(Cc1ccccc1)C(=O)N[C@@H](CCCN=C(N)N)C(=O)N[C@@H](Cc1c[nH]c2ccccc12)C(N)=O` (stereo in doubt), the figures for the Ratio in assay [1] and in assay [5] were 15 and 12, respectively. Further, the EC50 was 1980 nM in assay [2], 2360 nM in assay [3] and 159 nM in assay [4].
In the case of `COP(=S)(N[C@@H](Cc1ccc(Cl)cc1)C(=O)NC(Cc1ccccc1)C(=O)N[C@@H](CCCN=C(N)N)C(=O)N[C@@H](Cc1c[nH]c2ccccc12)C(N)=O)OC` (stereo in doubt), the Ratio in assay [1] and in assay [5] was 4 in each case. In addition, the half-maximal effective concentration (EC50) in assay [2] amounted to 1890 nM; in assay [3], 1600 nM; in assay [4], 446 nM.
As for `CS(=O)(=O)N[C@@H](Cc1ccc(Cl)cc1)C(=O)NC(Cc1ccccc1)C(=O)N[C@@H](CCCN=C(N)N)C(=O)N[C@@H](Cc1c[nH]c2ccccc12)C(N)=O` (stereo in doubt), the Ratio in assay [1] was 16; in assay [5], 1. Also, the values for the concentration for a half-maximal effect (EC50) in assay [2], in assay [3] and in assay [4] were 534 nM, 6700 nM and 419 nM, respectively.
`C=CCC(=O)N[C@@H](Cc1ccc(Cl)cc1)C(=O)NC(Cc1ccccc1)C(=O)N[C@@H](CCCNC(=N)N)C(=O)N[C@@H](Cc1c[nH]c2ccccc12)C(N)=O` (stereo in doubt): the Ratio in assay [1] worked out at 63; in assay [5], 62. Also, the EC50 worked out at 856 nM in assay [2], 863 nM in assay [3] and 13.7 nM in assay [4].
As for `CC(C)C(=O)N[C@@H](Cc1ccc(Cl)cc1)C(=O)NC(Cc1ccccc1)C(=O)N[C@@H](CCCN=C(N)N)C(=O)N[C@@H](Cc1c[nH]c2ccccc12)C(N)=O` (stereo in doubt), the Ratio is 4 in assay [1] and 5 in assay [5]. Besides, the EC50 in assay [2] worked out at 565 nM; in assay [3] it was 497 nM; in assay [4] it was 123 nM.
Taken in the same sequence, the figures for `N=C(N)NCCC[C@H](NC(=O)C(Cc1ccccc1)NC(=O)[C@H](Cc1ccc(Cl)cc1)NC(=O)C1CC1)C(=O)N[C@@H](Cc1c[nH]c2ccccc12)C(N)=O` (stereo in doubt) were 12, 14, 536 nM, 473 nM and 38.5 nM.
Turning to `N=C(N)NCCC[C@H](NC(=O)C(Cc1ccccc1)NC(=O)[C@H](Cc1ccc(Cl)cc1)NC(=O)Nc1ccccc1)C(=O)N[C@@H](Cc1c[nH]c2ccccc12)C(N)=O` (stereo in doubt), the Ratio is 0.6 in assay [1] and 7 in assay [5]. Besides, the EC50 stood at 985 nM in assay [2], 92.5 nM in assay [3] and 146 nM in assay [4].
In the case of `CC(C)(C)C(=O)N[C@@H](Cc1ccc(Cl)cc1)C(=O)NC(Cc1ccccc1)C(=O)N[C@@H](CCCN=C(N)N)C(=O)N[C@@H](Cc1c[nH]c2ccccc12)C(N)=O` (stereo in doubt), the Ratio in assay [1] is 6; in assay [5] it was 16. Besides, the concentration giving a half-maximal response (EC50) turned out to be 381 nM in assay [2], 145 nM in assay [3] and 23.7 nM in assay [4].
On to `CSCC(=O)N[C@@H](Cc1ccc(Cl)cc1)C(=O)NC(Cc1ccccc1)C(=O)N[C@@H](CCCN=C(N)N)C(=O)N[C@@H](Cc1c[nH]c2ccccc12)C(N)=O` (stereo in doubt), for which the results for the Ratio in assay [1] and in assay [5] were 26 and 10, respectively. Further, the values for the EC50 in assay [2], in assay [3] and in assay [4] were 378 nM, 1020 nM and 39.3 nM, respectively.
As for `N=C(N)NCCC[C@H](NC(=O)C(Cc1ccccc1)NC(=O)[C@H](Cc1ccc(Cl)cc1)NC(=O)CCC(=O)c1ccc(F)cc1)C(=O)N[C@@H](Cc1c[nH]c2ccccc12)C(N)=O` (stereo in doubt), the Ratio turned out to be 4 in assay [1] and 2 in assay [5]. Moreover, the EC50 in assay [2] was found to be 114 nM; in assay [3], 203 nM; in assay [4], 50 nM.
For `N=C(N)NCCC[C@H](NC(=O)C(Cc1ccccc1)NC(=O)[C@H](Cc1ccc(Cl)cc1)NC(=O)CCC(=O)c1cc(F)cc(F)c1)C(=O)N[C@@H](Cc1c[nH]c2ccccc12)C(N)=O` (stereo in doubt), the Ratio was 1.5 in assay [1] and 0.4 in assay [5]. The figures for the EC50 in assay [2], in assay [3] and in assay [4] were 41 nM, 140 nM and 96 nM, respectively.
`CCCC(=O)N[C@@H](Cc1ccc(Cl)cc1)C(=O)NC(Cc1ccccc1)C(=O)N[C@@H](CCCN=C(N)N)C(=O)N[C@@H](Cc1c[nH]c2ccccc12)C(N)=O` (stereo in doubt): the Ratio in assay [1] and in assay [5] was 8 each time. Further, the results for the EC50 in assay [2], in assay [3] and in assay [4] were 803 nM, 827 nM and 106 nM, respectively.
In the case of `N=C(N)NCCC[C@H](NC(=O)C(Cc1ccccc1)NC(=O)[C@H](Cc1ccc(Cl)cc1)NS(=O)(=O)C(F)(F)F)C(=O)N[C@@H](Cc1c[nH]c2ccccc12)C(N)=O` (stereo in doubt), the Ratio in assay [1] came out at 0.4; in assay [5], 0.5. For the same compound, the concentration giving a half-maximal response (EC50) in assay [2] was 2160 nM; in assay [3], 1670 nM; in assay [4] it was 4530 nM.
In the case of `COCC(=O)N[C@@H](Cc1ccc(Cl)cc1)C(=O)NC(Cc1ccccc1)C(=O)N[C@@H](CCCN=C(N)N)C(=O)N[C@@H](Cc1c[nH]c2ccccc12)C(N)=O` (stereo in doubt), the Ratio in assay [1] amounted to 14; in assay [5] it was 7. Besides, the EC50 in assay [2] is 502 nM; in assay [3], 961 nM; in assay [4], 68.7 nM.
In the case of `N=C(N)NCCC[C@H](NC(=O)C(Cc1ccccc1)NC(=O)[C@H](Cc1ccc(Cl)cc1)NC(=O)COc1ccccc1)C(=O)N[C@@H](Cc1c[nH]c2ccccc12)C(N)=O` (stereo in doubt), the results for the Ratio in assay [1] and in assay [5] were 5 and 4, respectively. In addition, the figures for the EC50 in assay [2], in assay [3] and in assay [4] were 841 nM, 859 nM and 185 nM, respectively.
The matching figures for `COP(=O)(N[C@@H](Cc1ccc(Cl)cc1)C(=O)NC(Cc1ccccc1)C(=O)N[C@@H](CCCN=C(N)N)C(=O)N[C@@H](Cc1c[nH]c2ccccc12)C(N)=O)OC` (stereo in doubt): 19, 6, 785 nM, 2640 nM and 137 nM.
Regarding `CCCCC(=O)N[C@@H](Cc1ccc(Cl)cc1)C(=O)NC(Cc1ccccc1)C(=O)N[C@@H](CCCN=C(N)N)C(=O)N[C@@H](Cc1c[nH]c2ccccc12)C(N)=O` (stereo in doubt), the Ratio in assay [1] and in assay [5] was 3 in each case. Besides, the EC50 in assay [2] is 441 nM; in assay [3] it was 460 nM; in assay [4] it was 155 nM.
